Some test systems named below: KM12; PC-3; BT-549; SK-OV-3; HOP-62; HL-60; RXF 393; MCF7; U-251; UACC-62; OVCAR-4; CAKI-1; NCI/ADR-RES; Hs-578T; SR; OVCAR-8; T47D; OVCAR-5; LOX IMVI; TK-10.
Common to all, as to assay: DTP human tumour cell line panel, 48 h

The structures appear in SMILES notation.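 Where inhibition never reached the appropriate level, the endpoint shown equals the highest concentration tested. Otherwise, values were interpolated linearly from a five-concentration, 48-hour dose response in 96-well plates. GI50 marks 50% less growth.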 Active and inactive are the calls of the source. No stated cut-off is given here; in the data, active = GI50 up to about 1.1 µM and inactive = higher.

Turning to `C=C1C[C@H](O)[C@H](Br)C(C)(C)C12CCC(C)(Cl)C(Br)C2` (stereo partly drawn), the GI50 is 1.48 µM (inactive) with KM12; 0.153 µM (active) in the assay with PC-3; 7.53 µM (inactive) in the assay with BT-549; 3.03 µM (inactive) in the assay with SK-OV-3; 2.26 µM (inactive) with HOP-62; 0.508 µM (active) in the assay with HL-60. Besides, the GI50 in the assay on RXF 393 is 1.95 µM (inactive); with MCF7 it was 3.25 µM (inactive); with U-251, 0.272 µM (active); in the assay with UACC-62 it was 5.85 µM (inactive); in the assay with OVCAR-4, 0.635 µM (active); in the assay on CAKI-1, 5.09 µM (inactive). In addition, the GI50 in the assay on NCI/ADR-RES is 4.58 µM (inactive); with Hs-578T it was 5.2 µM (inactive); in the assay on SR, 2.19 µM (inactive); with OVCAR-8, 1.23 µM (inactive); in the assay with T47D it was 0.746 µM (active); with OVCAR-5 it was 0.762 µM (active). For the same compound, the GI50 with LOX IMVI is 10 µM (inactive); in the assay with TK-10 it was 3.15 µM (inactive).
For the compound `Nc1ccc2c(SCc3ccc([N+](=O)[O-])cc3)c3ccccc3nc2c1`, the GI50 in the assay with KM12 is 12.5 µM (inactive); with PC-3, 16 µM (inactive); in the assay on BT-549 it was 17.9 µM (inactive); with SK-OV-3, 20.5 µM (inactive); with HOP-62, 21.8 µM (inactive); with HL-60 it was 1.31 µM (inactive). For the same compound, the GI50 in the assay on RXF 393 was 19.4 µM (inactive); in the assay with MCF7 it was 13.6 µM (inactive); with U-251 it was 18.2 µM (inactive); in the assay with UACC-62 it was 16.3 µM (inactive); in the assay with OVCAR-4, 14.1 µM (inactive); in the assay on CAKI-1 it was 13.3 µM (inactive). Further, the GI50 was 18.2 µM (inactive) in the assay on NCI/ADR-RES; 17.6 µM (inactive) in the assay on Hs-578T; 1.42 µM (inactive) in the assay on SR; 13.2 µM (inactive) in the assay with OVCAR-8; 8.02 µM (inactive) in the assay with T47D; 18.3 µM (inactive) in the assay with OVCAR-5. The GI50 in the assay on LOX IMVI was 6.84 µM (inactive); in the assay on TK-10, 11.9 µM (inactive).
Take `CCN(CC)C(=S)SC1CCOP(=O)(N(CCCl)CCCl)N1C` (stereo not drawn): the GI50 with KM12 was 7.19 µM (inactive); with PC-3, > 100 µM (inactive); in the assay with BT-549, > 100 µM (inactive); with SK-OV-3, > 80.2 µM (inactive); in the assay on HOP-62, > 95.1 µM (inactive); with HL-60, 0.509 µM (active). Further, the GI50 was 29.9 µM (inactive) with RXF 393; 69.3 µM (inactive) with MCF7; 1.83 µM (inactive) with UACC-62; 29.9 µM (inactive) in the assay on OVCAR-4; 45.6 µM (inactive) in the assay on CAKI-1; > 100 µM (inactive) with NCI/ADR-RES. Further, the GI50 is > 100 µM (inactive) in the assay on Hs-578T; 0.185 µM (active) in the assay with SR; 29.9 µM (inactive) in the assay on OVCAR-8; 61.7 µM (inactive) in the assay on T47D; 12.1 µM (inactive) in the assay on OVCAR-5; 1.41 µM (inactive) in the assay with LOX IMVI. The GI50 in the assay with TK-10 was > 71.1 µM (inactive).
Consider `COC(=O)C1=NN2c3ccccc3C(=O)OCCC2(C)C1` (stereo not drawn), for which the GI50 in the assay with KM12, in the assay with PC-3, in the assay on BT-549, in the assay with SK-OV-3, in the assay on HOP-62 and with HL-60 was > 100 µM (inactive) in each case. Besides, the GI50 with RXF 393, in the assay on MCF7, with U-251, in the assay with UACC-62, in the assay on OVCAR-4 and in the assay with CAKI-1 was > 100 µM (inactive) in each case. Moreover, the GI50 in the assay on NCI/ADR-RES, in the assay with Hs-578T, in the assay on SR, with OVCAR-8, in the assay with T47D and in the assay with OVCAR-5 was > 100 µM (inactive) each time. The GI50 in the assay with LOX IMVI and with TK-10 was > 100 µM (inactive) in each case.
For `N=C(N)NS(=O)(=O)c1ccc(Nc2c3ccccc3nc3c(C(=O)NC(CO)(CO)CO)cccc23)cc1`, the GI50 with KM12 is 14.9 µM (inactive); with PC-3, 32.5 µM (inactive); in the assay on BT-549, 13.4 µM (inactive); with SK-OV-3 it was 22 µM (inactive); in the assay on HOP-62, 13.6 µM (inactive); in the assay with HL-60, 18.9 µM (inactive). Besides, the GI50 is 3.44 µM (inactive) in the assay with MCF7; 12.2 µM (inactive) in the assay with U-251; 19.5 µM (inactive) with UACC-62; > 10 µM (inactive) with OVCAR-4; 34.5 µM (inactive) in the assay with CAKI-1; > 100 µM (inactive) in the assay with NCI/ADR-RES. The GI50 is 11.2 µM (inactive) in the assay with Hs-578T; 12.5 µM (inactive) in the assay on SR; 29 µM (inactive) in the assay with OVCAR-8; 4.7 µM (inactive) with T47D; 11.9 µM (inactive) in the assay on OVCAR-5; 18.7 µM (inactive) in the assay on LOX IMVI. For the same compound, in the assay on TK-10, the GI50 was 47.3 µM (inactive).
Consider `CN1CC[C@]23c4c5ccc(O)c4O[C@H]2C(O)CC[C@@]3(O)[C@H]1C5` (stereo partly drawn), for which the GI50 in the assay with KM12, with PC-3, in the assay with BT-549, in the assay on SK-OV-3, in the assay on HOP-62 and in the assay on HL-60 was > 100 µM (inactive) throughout. Moreover, the GI50 in the assay on MCF7, in the assay with U-251, in the assay with UACC-62, in the assay with OVCAR-4, in the assay with CAKI-1 and in the assay on NCI/ADR-RES was > 100 µM (inactive) each time. Moreover, the GI50 in the assay with Hs-578T, in the assay on SR, with OVCAR-8, in the assay with T47D, in the assay on OVCAR-5 and with LOX IMVI was > 100 µM (inactive) throughout. For the same compound, the GI50 in the assay on TK-10 is > 100 µM (inactive).
With `CCN(CC)CCOC(=O)CCN1CC2CCC(CC2)C1`, the GI50 in the assay with KM12, in the assay with PC-3, in the assay with BT-549, with SK-OV-3, in the assay on HL-60 and with RXF 393 was > 100 µM (inactive) throughout. Besides, the GI50 in the assay with MCF7, with U-251, in the assay on UACC-62, with OVCAR-4, in the assay with CAKI-1 and in the assay on NCI/ADR-RES was > 100 µM (inactive) throughout. For the same compound, the GI50 in the assay on Hs-578T, in the assay with SR, with OVCAR-8, with T47D, in the assay with OVCAR-5 and with LOX IMVI was > 100 µM (inactive) in each case. For the same compound, the GI50 in the assay on TK-10 is > 100 µM (inactive).
On to `CC(=O)OCC1OC(O/C=C(\CN=[N+]=[N-])C(C)=O)C(OC(C)=O)C(OC(C)=O)C1OC(C)=O` (stereo not drawn), for which the GI50 in the assay with KM12 was 18.7 µM (inactive); in the assay on PC-3, 12 µM (inactive); in the assay on BT-549 it was 13.4 µM (inactive); in the assay with SK-OV-3, 45 µM (inactive); with HOP-62, 25.6 µM (inactive); in the assay on HL-60, 2.03 µM (inactive). Moreover, the GI50 in the assay with MCF7 was 7.62 µM (inactive); in the assay with U-251 it was 12.2 µM (inactive); in the assay with UACC-62 it was 11.6 µM (inactive); in the assay with OVCAR-4, 12.5 µM (inactive); in the assay with CAKI-1 it was 3.01 µM (inactive); in the assay on NCI/ADR-RES it was 21 µM (inactive). Further, the GI50 in the assay on Hs-578T is 52.6 µM (inactive); in the assay on SR, 2.37 µM (inactive); in the assay on OVCAR-8, 6.01 µM (inactive); in the assay on T47D, 3.67 µM (inactive); with OVCAR-5, 16.5 µM (inactive); in the assay on LOX IMVI it was 3.47 µM (inactive). Besides, the GI50 in the assay with TK-10 was 6.19 µM (inactive).
On to `Cc1ccc(S(=O)(=O)NC(=O)NC(C(=O)O)C(C)C)cc1` (stereo not drawn), for which the GI50 with KM12, in the assay with PC-3, with BT-549, in the assay on SK-OV-3, in the assay with HOP-62 and in the assay with HL-60 was > 100 µM (inactive) each time. Further, the GI50 in the assay on RXF 393, in the assay with MCF7, with U-251, in the assay with UACC-62, in the assay on OVCAR-4 and in the assay on NCI/ADR-RES was > 100 µM (inactive) each time. Further, the GI50 in the assay with Hs-578T, in the assay on SR, in the assay with OVCAR-8, in the assay with T47D, in the assay on OVCAR-5 and in the assay with LOX IMVI was > 100 µM (inactive) throughout. Also, the GI50 with TK-10 was > 100 µM (inactive).
Consider `CCOc1c(OC)cc(C2c3cc4c(c(OCC)c3CC3COC(=O)C32)OCO4)cc1OC` (stereo not drawn), for which the GI50 in the assay with KM12 was 0.962 µM (active); with PC-3, 2.37 µM (inactive); in the assay on BT-549, 2.7 µM (inactive); in the assay on SK-OV-3 it was 4.03 µM (inactive); in the assay on HOP-62, 1.78 µM (inactive); in the assay on RXF 393, 4.6 µM (inactive). Further, the GI50 is 0.574 µM (active) in the assay with MCF7; 1.63 µM (inactive) with U-251; 0.365 µM (active) with UACC-62; 8.28 µM (inactive) in the assay on OVCAR-4; 5.16 µM (inactive) in the assay on CAKI-1; 2.03 µM (inactive) in the assay with NCI/ADR-RES. The GI50 was 1.99 µM (inactive) in the assay on Hs-578T; 0.247 µM (active) in the assay with SR; 2.11 µM (inactive) in the assay with OVCAR-8; 23 µM (inactive) in the assay on T47D; 3.24 µM (inactive) in the assay with OVCAR-5; 1.67 µM (inactive) in the assay with LOX IMVI. Moreover, the GI50 in the assay with TK-10 was 5.87 µM (inactive).

These data come from ChEMBL document CHEMBL1201862, “PubChem BioAssay data set” (2004).
